What all share (experiment): DTP human tumour cell line panel, 48 h
Assay [1] relates to 786-0.
The subject of assay [2] is CCRF-CEM.
Assay [3] deals with HOP-62.
Assay [4] has as its system IGROV-1.
The subject of assay [5] is LOX IMVI.
Assay [6] deals with MOLT-4.
The subject of assay [7] is Malme-3M.
The subject of assay [8] is NCI-H522.
Assay [9] relates to OVCAR-3.
In assay [10] the test system is OVCAR-8.
Assay [11] relates to RPMI-8226.
For assay [12], the system named is RXF 393.
Assay [13] concerns SK-OV-3.
For assay [14], the system named is SR.
Assay [15] concerns TK-10.
Assay [16] deals with UACC-257.
Assay [17] deals with UACC-62.
Assay [18] concerns OVCAR-4.
Assay [19] has as its system OVCAR-5.
The test system of assay [20] is SF-295.

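Tested at 5 concentrations; 48 h exposure; 96-well plates; endpoints linearly interpolated, else capped at highest concentration. GI50: concentration for 50% inhibition of growth.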 Activity calls are given as the source filed them. Cut-off read from the data, not from the text of the source: active = GI50 up to about 1.1 µM and inactive = higher.

In general, GI50 refers to the concentration giving 50% growth inhibition. `CN(C)c1ccc(/C=C/c2ccnc3ccc4ccccc4c23)cc1`: the GI50 in assay [1] was 39.5 µM (inactive); in assay [2], > 100 µM (inactive); in assay [3], 33.4 µM (inactive); in [4] it was 12.7 µM (inactive); in assay [5], 43.9 µM (inactive); in assay [6], > 100 µM (inactive). Besides, the GI50 is 25.3 µM (inactive) in [7]; 17.3 µM (inactive) in assay [8]; 51.9 µM (inactive) in assay [9]; 33.1 µM (inactive) in assay [10]; 79.4 µM (inactive) in [11]; 17.7 µM (inactive) in [12]. In addition, the GI50 was 27.9 µM (inactive) in [13]; 13.2 µM (inactive) in assay [14]; 19.1 µM (inactive) in assay [15]; 89.5 µM (inactive) in assay [16]; 53.1 µM (inactive) in assay [17].

As for `O=C(Nc1nc2c(=O)[nH]cnc2s1)c1ccccc1`, the GI50 in [1] was > 100 µM (inactive); in assay [2] it was > 100 µM (inactive); in assay [3] it was > 100 µM (inactive); in assay [4], 71.8 µM (inactive); in assay [5], 64 µM (inactive); in assay [7], > 100 µM (inactive). For the same compound, the GI50 in [8] was > 100 µM (inactive); in [9], > 100 µM (inactive); in [18], > 100 µM (inactive); in [19], > 100 µM (inactive); in assay [10], > 100 µM (inactive); in assay [12], 55.7 µM (inactive). Moreover, the GI50 in assay [20] is > 100 µM (inactive); in assay [13], > 100 µM (inactive); in assay [14], 0.315 µM (active); in [15], 68.9 µM (inactive); in assay [16], > 100 µM (inactive); in [17] it was > 100 µM (inactive).

For `Cc1nc2ccc(C(F)(F)F)cc2nc1Nc1ccc(Cl)c(Cl)c1`, the GI50 in assay [1] is 4.69 µM (inactive); in [2], 6.44 µM (inactive); in assay [3], 16 µM (inactive); in assay [5] it was 3.03 µM (inactive); in assay [6], 7 µM (inactive); in assay [7], 19.9 µM (inactive). In addition, the GI50 in [9] is 12.8 µM (inactive); in assay [19], 15.4 µM (inactive); in [10] it was 12.8 µM (inactive); in assay [11], 8.17 µM (inactive); in assay [12], 6.49 µM (inactive); in assay [20], 3.4 µM (inactive). In addition, the GI50 is 18.9 µM (inactive) in [13]; 8.73 µM (inactive) in assay [14]; 17.6 µM (inactive) in [15]; 12.8 µM (inactive) in assay [16]; 12.9 µM (inactive) in assay [17].

Turning to `CC1C2CC(C(C3C(=O)C4CC3C(C)(C)C4C)C2=O)C1(C)C` (stereo not given), the GI50 in [1], in [2], in assay [3], in assay [4], in assay [6] and in assay [7] was > 100 µM (inactive) throughout. Also, the GI50 in assay [8], in assay [9], in assay [18], in assay [19], in assay [10] and in [12] was > 100 µM (inactive) throughout. For the same compound, the GI50 in assay [20], in assay [13], in assay [14], in [15], in assay [16] and in [17] was > 100 µM (inactive) throughout.

In the case of `CC1(C)C2CCC1(C)[C@H](O)[C@H]2Nc1cc(C(F)(F)F)cc(C(F)(F)F)c1` (stereo not given in full), the GI50 in assay [1] was 3.85 µM (inactive); in [3], 5.48 µM (inactive); in assay [4] it was 4.74 µM (inactive); in assay [5] it was 3 µM (inactive); in [6], 2.19 µM (inactive); in [7] it was 3.27 µM (inactive). Besides, the GI50 in assay [9] is 2.24 µM (inactive); in assay [18], 5.12 µM (inactive); in assay [19], 7.41 µM (inactive); in assay [10], 3.21 µM (inactive); in [11], 3.01 µM (inactive); in assay [12], 2.85 µM (inactive). Also, the GI50 in assay [20] is 2.37 µM (inactive); in assay [13], 3.88 µM (inactive); in [14] it was 2.95 µM (inactive); in [15] it was 3.15 µM (inactive); in assay [16] it was 3.78 µM (inactive); in assay [17], > 100 µM (inactive).

On to `C#C[C@H](CCCC)OC(=O)N[C@H](C)c1ccccc1`, for which the GI50 was 49.1 µM (inactive) in [1]; 34.6 µM (inactive) in [2]; > 100 µM (inactive) in assay [3]; 75.3 µM (inactive) in assay [4]; 33.2 µM (inactive) in [5]; 31.3 µM (inactive) in assay [6]. The GI50 in [8] is 29.2 µM (inactive); in assay [9], 53.3 µM (inactive); in assay [18], 42 µM (inactive); in [19] it was 48 µM (inactive); in assay [10], 49.3 µM (inactive); in assay [11], 24.5 µM (inactive). Moreover, the GI50 in [12] was 30.9 µM (inactive); in [20], 75 µM (inactive); in assay [13] it was > 100 µM (inactive); in assay [14], 26.9 µM (inactive); in [15], 37.8 µM (inactive); in [16] it was 24.8 µM (inactive). In addition, the GI50 in assay [17] was 80.9 µM (inactive).

Take `COC(=O)C#CC(N)=O`: the GI50 in assay [1] is > 59.3 µM (inactive); in [2], 13.9 µM (inactive); in [3], > 100 µM (inactive); in assay [4], > 100 µM (inactive); in [5], > 35.8 µM (inactive); in assay [6], 22.3 µM (inactive). The GI50 was 13.4 µM (inactive) in assay [7]; > 63.1 µM (inactive) in assay [8]; > 100 µM (inactive) in assay [9]; > 100 µM (inactive) in [18]; > 100 µM (inactive) in assay [19]; 30.7 µM (inactive) in assay [10]. The GI50 in assay [12] is 31.4 µM (inactive); in assay [20] it was > 100 µM (inactive); in assay [13] it was > 100 µM (inactive); in assay [14], 24.2 µM (inactive); in assay [15], > 55.6 µM (inactive); in [16], 27.7 µM (inactive). Moreover, the GI50 in assay [17] is > 64.7 µM (inactive).

Turning to `NC(=O)c1oc([N+](=O)[O-])c(-c2ccccc2)c1-c1ccccc1`, the GI50 in [1] is 25.1 µM (inactive); in [2], 19.1 µM (inactive); in assay [3], 25.8 µM (inactive); in [4], 12.9 µM (inactive); in assay [5] it was 14.1 µM (inactive); in [6], 17.1 µM (inactive). For the same compound, the GI50 in assay [7] is 3.49 µM (inactive); in assay [8], 12.6 µM (inactive); in [9], 1.24 µM (inactive); in assay [18] it was 12.2 µM (inactive); in assay [19], 26.1 µM (inactive); in assay [10] it was 24.8 µM (inactive). The GI50 in [12] is 31.6 µM (inactive); in assay [20], 15.8 µM (inactive); in assay [13], 36.1 µM (inactive); in assay [14], 6.27 µM (inactive); in assay [15], 28.6 µM (inactive); in assay [16], 18 µM (inactive). Further, in assay [17], the GI50 is 8.65 µM (inactive).

`CCOC(=O)N/N=C(/N)Cc1ccccc1`: the GI50 in [1], in assay [2], in assay [3], in [4], in [5] and in [6] was > 100 µM (inactive) in each case. Also, the GI50 in [7], in assay [8], in assay [9], in assay [19], in [10] and in [12] was > 100 µM (inactive) each time. The GI50 in assay [20], in assay [13], in assay [14], in assay [15], in assay [16] and in assay [17] was > 100 µM (inactive) each time.

`O=C1NC(=O)C(CC2CCCCCCCCCCC2=O)C(=O)N1` (stereo not given): the GI50 in assay [1] is > 100 µM (inactive); in assay [2], 1.2 µM (inactive); in assay [3], > 100 µM (inactive); in assay [4], > 100 µM (inactive); in [5] it was > 100 µM (inactive); in [6], 39.6 µM (inactive). In addition, the GI50 in assay [8], in assay [9], in assay [18], in assay [19], in assay [10] and in [12] was > 100 µM (inactive) throughout. In addition, the GI50 in assay [20] was > 100 µM (inactive); in [13], > 100 µM (inactive); in [14], 0.041 µM (active); in [15] it was > 100 µM (inactive); in assay [16], > 100 µM (inactive); in assay [17], > 100 µM (inactive).

Take `CC(C)(O)/C=C/C(=O)[C@](C)(O)[C@H]1[C@H](O)C[C@@]2(C)[C@@H]3CC=C4[C@@H](C[C@H](O)C(=O)C4(C)C)[C@]3(C)C(=O)C[C@]12C` [CUCURBITACIN D]: the GI50 was 0.1 µM (active) in assay [1]; 0.0687 µM (active) in assay [2]; 0.198 µM (active) in assay [3]; 0.376 µM (active) in assay [4]; 0.0562 µM (active) in [5]; 0.953 µM (active) in assay [6]. The GI50 in assay [7] is 0.0679 µM (active); in [8], 0.128 µM (active); in [9] it was 0.201 µM (active); in assay [19], 1.04 µM (active); in [10], 0.65 µM (active); in assay [11], 0.0228 µM (active). Further, the GI50 is 0.0964 µM (active) in [12]; 0.344 µM (active) in assay [20]; 0.281 µM (active) in assay [13]; 0.118 µM (active) in [14]; 0.239 µM (active) in assay [15]; 0.0968 µM (active) in [16]. In addition, in assay [17], the GI50 was 0.0438 µM (active).

Source of the values: ChEMBL document CHEMBL1201862, “PubChem BioAssay data set” (2004).
